Test results taken from the SangsterLogP compilation.

assay: method code SF, from Hansch, C. & Leo, A. (1987). Log P database [Dataset]. Pomona College Medicinal Chemistry Project.; settings: not given

With C/C=C/C as the compound, how does the logP read?
The logP was 2.31.

With COc1cccc(OC)n1 as the compound, how does the logP read?
Its logP is 2.3.

Which logP does the source give for OCc1cccc(C(F)(F)F)c1 here?
The logP was 2.24.

For NC(=O)C(F)(F)F, which logP is on record?
The logP was 0.12.

Which logP does the source give for COC(=O)c1ccccc1NC(C)=O here?
Its logP is 1.65.

For CC(=O)Oc1cccc(C(F)(F)F)c1, which logP is on record?
Its logP is 2.63.

Which logP does the source give for CSc1ccc(NC(C)=O)cc1 here?
The logP was 2.03.

Which logP does the source give for CCOC(=O)C(=Cc1ccc(Cl)c(Cl)c1)C(C)=O here?
Its logP is 3.92.

Which logP does the source give for CCOC(=O)C(=Cc1cccc(OCC)c1)C(=O)OCC here?
The logP was 3.39.

Which logP does the source give for CCOC(=O)NC1=C(N2CC2)C(=O)C(NC(=O)OCC)=C(N2CC2)C1=O here?
Its logP is 0.05.

With NC1=NC(C(F)(F)F)(C(F)(F)F)NC1(C(F)(F)F)C(F)(F)F as the compound, how does the logP read?
Its logP is 3.35.

Which logP does the source give for NC(=O)c1cccc(O)c1 here?
The logP was 0.39.

Which logP does the source give for CCCCCCCNC(=O)c1ccccc1 here?
Its logP is 2.94.

For CC(=O)c1ccccc1O, which logP is on record?
The logP was 1.88.

For OCCCC(F)(F)F, which logP is on record?
The logP was 0.9.

Which logP does the source give for Cc1ccc(C(O)c2ccccc2)cc1 (configuration not stated) here?
The logP was 3.13.

For CC1=Nc2ccc([N+](=O)[O-])cc2S(=O)(=O)N1, which logP is on record?
The logP was 0.65.

Which logP does the source give for Cc1ccc(Cc2c[nH]c(NCCCCc3ccc(Br)cc3C)nc2=O)cn1 here?
The logP was 3.61.

Which logP does the source give for Cc1ccc(N)nc1 here?
Its logP is 1.02.

Which logP does the source give for CC(=O)Nc1ccc2c(c1)[nH]c1ccccc12 here?
Its logP is 3.02.

With CN(C)c1ccc([N+]([O-])=NC#N)cc1 as the compound, how does the logP read?
Its logP is 2.3.

With O=C(N[C@H](CO)[C@H](O)c1ccc(-c2ccccn2)cc1)C(F)(F)F as the compound, how does the logP read?
The logP was 1.31.

With CCOC(=O)C(=Cc1ccc(Cl)cc1)C(=O)OCC as the compound, how does the logP read?
Its logP is 3.96.

Which logP does the source give for CC(=O)OCC1CCC(NC(=O)N(CCCl)N=O)CC1 (configuration not stated) here?
Its logP is 2.24.

For CCC(=O)OCCOc1ccc(C=O)cc1OC, which logP is on record?
Its logP is 1.33.

Which logP does the source give for O=C(c1ccco1)C(O)c1ccco1 (configuration not stated) here?
Its logP is 0.54.

With FC(F)Cl as the compound, how does the logP read?
The logP was 1.08.

With O=C1C(N2CCN(CCO)CC2)=C(N2CC2)C(=O)C(N2CCN(CCO)CC2)=C1N1CC1 as the compound, how does the logP read?
The logP was -0.73.

With Nc1nc(=O)c2ccccc2o1 as the compound, how does the logP read?
The logP was 0.27.

For N/N=C1\c2ccccc2C(=O)C1C(=O)C(c1ccccc1)c1ccccc1 (configuration not stated), which logP is on record?
Its logP is 3.62.

For O=NN(CCCl)C(=O)NC1CS(=O)(=O)CS(=O)(=O)C1, which logP is on record?
The logP was -0.94.

Which logP does the source give for O=C1C(=O)c2cccc3cccc1c23 here?
The logP was 1.95.

With O=C(O)COc1ccc(Cl)c(I)c1 as the compound, how does the logP read?
Its logP is 3.1.

With O=[N+]([O-])C=Cc1ccsc1 as the compound, how does the logP read?
The logP was 1.94.

For CC1=Nc2ccc(C(F)(F)F)cc2S(=O)(=O)N1, which logP is on record?
Its logP is 1.51.

With CN(C)c1cccc(C(N)=O)c1 as the compound, how does the logP read?
The logP was 0.95.

Which logP does the source give for O=c1[nH]cc(CO)c(=O)[nH]1 here?
Its logP is -1.94.

For O=C(C(=O)c1ccco1)c1ccco1, which logP is on record?
Its logP is 1.24.

With CNc1ccc(S(=O)(=O)N(C)C)cc1 as the compound, how does the logP read?
The logP was 1.43.

For CC(C)Oc1ccccc1OC(=O)N(C)C, which logP is on record?
The logP was 2.06.

Which logP does the source give for CNP(=O)(OC)Oc1cccc(C(C)(C)C)c1 (configuration not stated) here?
The logP was 2.65.

Which logP does the source give for CC(=O)Nc1cccc(OC(=O)CNC(=O)c2ccccc2)c1 here?
The logP was 1.7.

With COc1ccc2c(c1)N=C(C)NS2(=O)=O as the compound, how does the logP read?
The logP was 0.56.

With NNC(=O)NN=Cc1ccccc1 as the compound, how does the logP read?
Its logP is 0.81.

For c1cocn1, which logP is on record?
The logP was 0.12.

With C[C@@H](O)c1ccccc1 as the compound, how does the logP read?
The logP was 1.42.

For CCc1ccc(NC(C)=O)cc1, which logP is on record?
The logP was 2.11.

Which logP does the source give for NC(=O)Nc1ccc(C(O)C(CO)NC(=O)C(Cl)Cl)cc1 (configuration not stated) here?
The logP was -0.6.

With C=CCNC(=O)NCC=C as the compound, how does the logP read?
The logP was 0.64.

Which logP does the source give for CN(C)C(=O)c1cccs1 here?
Its logP is 0.75.

With CSC(=O)Nc1ccc(Cl)c(Cl)c1 as the compound, how does the logP read?
Its logP is 4.23.

Which logP does the source give for Cc1oc2cc(OCC#N)ccc2c(=O)c1C here?
Its logP is 1.96.

same assay, conditions: pH 2.0

Which logD does the source give for O=C(O)c1nccc2ccccc12 here?
Its logD is -0.53.

same assay, conditions: pH 5.0

For O=S(Cc1ccccn1)c1nc2ccccc2[nH]1 (configuration not stated), which logD is on record?
The logD was 1.33.

same assay, conditions: pH 5.4

With O=C(c1ccccc1)c1cccc(NS(=O)(=O)C(F)F)c1 as the compound, how does the logD read?
The logD was 2.86.

same assay, conditions: pH 7.0

With CCOC(=O)c1cccc([N+](=O)[O-])c1 as the compound, how does the logD read?
Its logD is 2.35.

With NC(=O)c1cccnc1N as the compound, how does the logD read?
Its logD is 0.88.

same assay, conditions: pH 7.4

Which logD does the source give for Cc1[nH]c(=O)[nH]c(=O)c1N(CCF)CCCl here?
Its logD is 0.85.

Which logD does the source give for Cc1c(N2CCCCC2)c(=O)n(-c2ccccc2)c(=O)n1C here?
The logD was 2.76.

With CCn1c(=O)c(N(C)C)c(C)n(-c2ccccc2)c1=O as the compound, how does the logD read?
The logD was 2.29.

same assay, conditions: pH 12.0

Which logD does the source give for CCC[C@@H]1C[C@@H](C(=O)N[C@@H]([C@H]2O[C@H](SCC)[C@H](O)[C@@H](O)[C@H]2O)[C@@H](C)O)N(CC)C1 here?
The logD was 1.91.

same assay, conditions: pH 13.0

With CN[C@@H](C)Cc1ccccc1 as the compound, how does the logD read?
The logD was 2.07.
